According to patent USRE48097E1, “Cephem compounds, their production and use” (priority 2015, dated 2020):
Converted amounts (≈) assume the structure as drawn. Read-outs that look alike come from different tables or passages of the source.

What was measured:
S. aureus3137 = experiment: MIC against S. aureus3137; assay type: cell-based, S. aureus; settings: Table 2, S. aureus3137, MSSA
Description: (§1) Without limitation, the present cephem compounds alone, or in combination with one or more β-lactamase inhibitors, may provide improved antibacterial efficacy, particularly in antibiotic-resistant bacterial strains. It is believed that the present compounds may be structurally different from known compounds and, as a result, may be more basic in nature. It is an advantage that the present compounds may extend the spectrum of effective bacterial compounds, particularly against previously-resistant bacteria (e.g. ESKAPE organisms), and/or gram negative bacteria, without significant side effects. In a preferred embodiment, the present cephem compound may comprise reference compound ceftazidime, which may be used alone, or in combination with one or more β-lactamase inhibitors, such as NXL-104. As shown, the foregoing composition was tested for minimum inhibitory concentration (MIC, μg/mL) against bacteria listed in Tables 2-3.

S. pneumoniae 2492 = experiment: MIC against S. pneumoniae 2492; assay type: cell-based; settings: Table 2, S. pneumoniae 2492, Pen R
Description: as §1

S. pneumoniae 2493 = experiment: MIC against S. pneumoniae 2493; assay type: cell-based; settings: Table 2, S. pneumoniae 2493, Pen R
Description: as §1

S. pneumoniae 2403 = experiment: MIC against S. pneumoniae 2403; assay type: cell-based; settings: Table 2, S. pneumoniae 2403, Pen S
Description: as §1

C. freundii 580 = experiment: MIC against C. freundii 580; assay type: cell-based; settings: Table 2, C. freundii 580, Caz R, IMP S
Description: as §1

C. freundii 2003 = experiment: MIC against C. freundii 2003; assay type: cell-based; settings: Table 2, C. freundii 2003, Caz R, IMP S
Description: as §1

C. freundii 2487 = experiment: MIC against C. freundii 2487; assay type: cell-based; settings: Table 2, C. freundii 2487, Caz R, IMP S
Description: as §1

K. pneumoniae 4106 = experiment: MIC against K. pneumoniae 4106; assay type: cell-based; settings: K. pneumoniae 4106, KPC-3, TEM-1, SHV-12, SHV-141
Experimental: (§2) As shown, the foregoing composition was tested for minimum inhibitory concentration (MIC, μg/mL) against bacteria listed in Tables 2-3.

K. pneumoniae 4109 = experiment: MIC against K. pneumoniae 4109; assay type: cell-based; settings: Table 2, K. pneumoniae 4109, SHV-1, SHV-12
Description: as §1

K. baumanii 2579 = experiment: MIC against K. baumanii 2579; assay type: cell-based; settings: Table 2, K. baumanii 2579, OXA-25
Description: as §1

K. baumanii 4095 = experiment: MIC against K. baumanii 4095; assay type: cell-based; settings: Table 2, K. baumanii 4095, OXA-48
Description: as §1

E. coli 2668 = experiment: MIC against E. coli 2668; assay type: cell-based; settings: Table 2, E. coli 2668, OXA-48
Description: as §1

E. cloacae 2705 = experiment: MIC against E. cloacae 2705; assay type: cell-based; settings: Table 3, E. cloacae 2705, VIM-1, KPC-3type
Experimental: as §2

K. pneumoniae 2690 = experiment: MIC against K. pneumoniae 2690; assay type: cell-based; settings: Table 3, K. pneumoniae 2690, KPC-2
Experimental: as §2

K. pneumoniae 2711 = experiment: MIC against K. pneumoniae 2711; assay type: cell-based; settings: Table 3, K. pneumoniae 2711, KPC-3, VIM-1
Experimental: as §2

[1] = Staphylococcus aureus, alone, read-out: MIC
[2] = Streptococcus pneumoniae, alone, read-out: MIC
[3] = Citrobacter freundii, alone, read-out: MIC
[4] = Klebsiella pneumoniae, 4106, Table 2, alone, read-out: MIC
[5] = Klebsiella pneumoniae, 4106, Table 3, alone, read-out: MIC
[6] = Klebsiella pneumoniae, alone, read-out: MIC
[7] = Escherichia coli, alone, read-out: MIC
[8] = Enterobacter cloacae, alone, read-out: MIC

Row | SMILES | MIC (S. aureus3137; [1]) | MIC (S. pneumoniae 2492; [2]) | MIC (S. pneumoniae 2493; [2]) | MIC (S. pneumoniae 2403; [2]) | MIC (C. freundii 580; [3]) | MIC (C. freundii 2003; [3]) | MIC (C. freundii 2487; [3]) | MIC (K. pneumoniae 4106; [4]) | MIC (K. pneumoniae 4106; [5]) | MIC (K. pneumoniae 4109; [6]) | MIC (K. baumanii 2579; alone, read-out: MIC) | MIC (K. baumanii 4095; alone, read-out: MIC) | MIC (E. coli 2668; [7]) | MIC (E. cloacae 2705; [8]) | MIC (K. pneumoniae 2690; [6]) | MIC (K. pneumoniae 2711; [6]) | also measured
1 | CC(C)(O/N=C(\C(=O)N[C@@H]1C(=O)N2C(C(=O)[O-])=C(C[n+]3ccc4c(ccn4Cc4ccc(C(=N)N)cc4)c3)CS[C@H]12)c1csc(N)n1)C(=O)O [Ex-1, (6R,7R)-7-{[(2Z)-2-(2-Amino-1,3-thiazol-4-yl)-2-{[(2-carboxypropan-2-yl)oxy]imino}acetyl]-amino}-3-{[1-(4-carbamimidoylbenzyl)-1H-pyrrolo[3,2-c]pyridin-5-ium-5-yl]methyl}-8-oxo-5-thia-1-azabicyclo[4.2.0]oct-2-ene-2-carboxylate] | 8 µg/mL | 2 µg/mL | 4 µg/mL | ≤ 0.06 µg/mL | 16 µg/mL | 8 µg/mL | 32 µg/mL | 8 µg/mL (≈ 11.1 µM) | 32 µg/mL (≈ 44.6 µM) | 2 µg/mL | 32 µg/mL | 0.5 µg/mL | 1 µg/mL | > 32 µg/mL | 32 µg/mL (≈ 44.6 µM) | 4 µg/mL (≈ 5.57 µM) | –
2 | CC(C)(O/N=C(\C(=O)N[C@@H]1C(=O)N2C(C(=O)[O-])=C(C[n+]3ccc4c(ccn4Cc4cc(C(=N)N)co4)c3)CS[C@H]12)c1csc(N)n1)C(=O)O [Example 6, (6R,7R)-7-{[(2Z)-2-(2-Amino-1,3-thiazol-4-yl)-2-{[(2-carboxypropan-2-yl)oxy]imino}acetyl]amino}-3-({1-[(4-carbamimidoylfuran-2-yl)methyl]-1H-pyrrolo[3,2-c]pyridin-5-ium-5-yl}methyl)-8-oxo-5-thia-1-azabicyclo[4.2.0]oct-2-ene-2-carboxylate] | 32 µg/mL | 2 µg/mL | 2 µg/mL | ≤ 0.06 µg/mL | 4 µg/mL | 4 µg/mL | 8 µg/mL | 16 µg/mL (≈ 22.6 µM) | 32 µg/mL (≈ 45.2 µM) | 8 µg/mL | > 32 µg/mL | 0.12 µg/mL | 0.5 µg/mL | > 32 µg/mL | 16 µg/mL (≈ 22.6 µM) | 4 µg/mL (≈ 5.65 µM) | MIC (S. aureus3137; in combination with NXL-104): 8.00 µg/mL; MIC (S. pneumoniae 2492; in combination with NXL-104): 2.00 µg/mL; MIC (S. pneumoniae 2493; in combination with NXL-104): 2.00 µg/mL; MIC (S. pneumoniae 2403; in combination with NXL-104): ≤0.06 µg/mL; MIC (C. freundii 580; in combination with NXL-104): 0.25 µg/mL; MIC (C. freundii 2003; in combination with NXL-104): 0.50 µg/mL; MIC (C. freundii 2487; in combination with NXL-104): 1.00 µg/mL; MIC (K. pneumoniae 4106; Table 2, in combination with NXL-104): 1.00 µg/mL; MIC (K. pneumoniae 4106; Table 3, in combination with NXL-104): 2 µg/mL; MIC (K. pneumoniae 4109; in combination with NXL-104): 0.12 µg/mL; MIC (K. baumanii 2579; in combination with NXL-104): 16.00 µg/mL; MIC (K. baumanii 4095; in combination with NXL-104): 0.25 µg/mL; MIC (E. coli 2668; in combination with NXL-104): 0.12 µg/mL; MIC (E. cloacae 2705; in combination with NXL-104): >32 µg/mL; MIC (K. pneumoniae 2690; in combination with NXL-104): 1 µg/mL; MIC (K. pneumoniae 2711; in combination with NXL-104): 0.5 µg/mL
